The experiment relates to viral neuraminidase. It counts as biochemical, influenza virus. The settings on record: pH 5.5.

On to “Sodium (4-(4-hydroxy-3-methoxyphenyl)butan-2-one-5-acetamido-3,5-dideoxy-α-D-glycero-D-galacto-2-nonulopyranoside)onate [zingerone]”, for which the “enzymatic cleavage of the substrate and release of odorant (decrease of substrate signal, appearance of cleavage product signals)” value was “significant loss of peak at 508.3 amu”.

With `CC(=O)NC1C(O)CC(OCC2(C)CC2CC2CC3CC3(C)C2(C)C)(C(=O)O)OC1CC(O)CO` [javanol, Sodium ([(1R,2S)-1-methyl-2-[[(1R,3S,5S)-1,2,2-trimethyl-3-bicyclo[3.1.0]hexanyl]methyl]cyclopropyl]methyl-5-acetamido-3,5-dideoxy-α-D-glycero-D-galacto-2-nonulopyranoside)onate], the “enzymatic cleavage of the substrate and release of odorant (decrease of substrate signal, appearance of cleavage product signals)” value was “substrate is still present”.

Source of the values: US20140087369A1, “INFECTION DETECTION METHODS AND SYSTEMS AND RELATED COMPOUNDS AND COMPOSITIONS” (priority 2010, published 2014).
